In the supplement of paper PMC10307832:

Legend:
Experiment in all cases: relative viability (nuclei count vs DMSO), 5 days (fraction); higher = more cells survive
EPLC-272H = tested on: EPLC-272H
Method in brief: (§1)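 Cells from lung cancer lines were seeded into 1536-well plates and, one day later, dosed by pin tool. Treatments were either a single drug or a fixed dose of an anchor drug with five library-drug doses (not always all listed) in √10 steps. After 5 days, nuclei were stained in a one-step fixation (final 0.05% Triton X-100, 1% formaldehyde, 1 ug/ml Hoechst) and counted on 4× images, and relative viability is the treated-to-vehicle nuclei ratio, as the median of duplicate plates.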

H3255 = tested on: H3255
Method in brief: as §1

HARA = tested on: HARA
Method in brief: as §1

LC-2-ad = tested on: LC-2-ad
Method in brief: as §1

LOU-NH91 = tested on: LOU-NH91
Method in brief: as §1

NCI-H1650 = tested on: NCI-H1650
Method in brief: as §1

NCI-H1651 = tested on: NCI-H1651
Method in brief: as §1

NCI-H1975 = tested on: NCI-H1975
Method in brief: as §1

NCI-H2009 = tested on: NCI-H2009
Method in brief: as §1

NCI-H2023 = tested on: NCI-H2023
Method in brief: as §1

NCI-H2085 = tested on: NCI-H2085
Method in brief: as §1

NCI-H2087 = tested on: NCI-H2087
Method in brief: as §1

NCI-H2170 = tested on: NCI-H2170
Method in brief: as §1

NCI-H2228 = tested on: NCI-H2228
Method in brief: as §1

NCI-H23 = tested on: NCI-H23
Method in brief: as §1

NCI-H441 = tested on: NCI-H441
Method in brief: as §1

NCI-H650 = tested on: NCI-H650
Method in brief: as §1

NCI-H727 = tested on: NCI-H727
Method in brief: as §1

NCI-H838 = tested on: NCI-H838
Method in brief: as §1

PC-3 [JPC-3] = tested on: PC-3 [JPC-3]
Method in brief: as §1

SW 1573 = tested on: SW 1573
Method in brief: as §1

SW 900 = tested on: SW 900
Method in brief: as §1

UMC-11 = tested on: UMC-11
Method in brief: as §1

`CCNC(=O)c1noc(-c2cc(C(C)C)c(O)cc2O)c1-c1ccc(CN2CCOCC2)cc1` [Luminespib] + CC(=O)c1c(C)c2cnc(Nc3ccc(N4CCNCC4)cn3)nc2n(C2CCCC2)c1=O [Palbociclib] (partner 0.5 µM) was tested, and the relative viability (EPLC-272H; first compound 0.002 µM) was 0.285, the relative viability (EPLC-272H; first compound 0.006325 µM) was 0.317 and the relative viability (EPLC-272H; first compound 0.02 µM) was 0.284. It also gave a relative viability (EPLC-272H; first compound 0.06325 µM) of 0.311, a relative viability (EPLC-272H; first compound 0.2 µM) of 0.0905 and a relative viability (H3255; first compound 0.002 µM) of 0.325. It also gave a relative viability (H3255; first compound 0.006325 µM) of 0.304, a relative viability (H3255; first compound 0.02 µM) of 0.308 and a relative viability (H3255; first compound 0.06325 µM) of 0.281. For the same molecule, the relative viability (H3255; first compound 0.2 µM) was 0.296, the relative viability (HARA; first compound 0.002 µM) was 0.221 and the relative viability (HARA; first compound 0.006325 µM) was 0.221. The relative viability (HARA; first compound 0.02 µM) was 0.213, the relative viability (HARA; first compound 0.06325 µM) was 0.253 and the relative viability (HARA; first compound 0.2 µM) was 0.11. It also gave a relative viability (LC-2-ad; first compound 0.002 µM) of 0.473, a relative viability (LC-2-ad; first compound 0.006325 µM) of 0.486 and a relative viability (LC-2-ad; first compound 0.02 µM) of 0.556. For the same molecule, the relative viability (LC-2-ad; first compound 0.06325 µM) was 0.478, the relative viability (LC-2-ad; first compound 0.2 µM) was 0.331 and the relative viability (LOU-NH91; first compound 0.002 µM) was 0.557. For the same molecule, the relative viability (LOU-NH91; first compound 0.006325 µM) was 0.533, the relative viability (LOU-NH91; first compound 0.02 µM) was 0.503 and the relative viability (LOU-NH91; first compound 0.06325 µM) was 0.375. For the same molecule, the relative viability (LOU-NH91; first compound 0.2 µM) was 0.354, the relative viability (NCI-H1650; first compound 0.002 µM) was 0.305 and the relative viability (NCI-H1650; first compound 0.006325 µM) was 0.302. For the same molecule, the relative viability (NCI-H1650; first compound 0.02 µM) was 0.168, the relative viability (NCI-H1650; first compound 0.06325 µM) was 0.106 and the relative viability (NCI-H1650; first compound 0.2 µM) was 0.127. For the same molecule, the relative viability (NCI-H1651; first compound 0.002 µM) was 0.544, the relative viability (NCI-H1651; first compound 0.006325 µM) was 0.521 and the relative viability (NCI-H1651; first compound 0.02 µM) was 0.408. The relative viability (NCI-H1651; first compound 0.06325 µM) was 0.423, the relative viability (NCI-H1651; first compound 0.2 µM) was 0.332 and the relative viability (NCI-H1975; first compound 0.002 µM) was 0.614. For the same molecule, the relative viability (NCI-H1975; first compound 0.006325 µM) was 0.469, the relative viability (NCI-H1975; first compound 0.02 µM) was 0.363 and the relative viability (NCI-H1975; first compound 0.06325 µM) was 0.103. For the same molecule, the relative viability (NCI-H1975; first compound 0.2 µM) was 0.122, the relative viability (NCI-H2009; first compound 0.002 µM) was 0.287 and the relative viability (NCI-H2009; first compound 0.006325 µM) was 0.172. For the same molecule, the relative viability (NCI-H2009; first compound 0.02 µM) was 0.113, the relative viability (NCI-H2009; first compound 0.06325 µM) was 0.0496 and the relative viability (NCI-H2009; first compound 0.2 µM) was 0.0514. The relative viability (NCI-H2023; first compound 0.002 µM) was 0.423, the relative viability (NCI-H2023; first compound 0.006325 µM) was 0.364 and the relative viability (NCI-H2023; first compound 0.02 µM) was 0.309. For the same molecule, the relative viability (NCI-H2023; first compound 0.06325 µM) was 0.0518, the relative viability (NCI-H2023; first compound 0.2 µM) was 0.0463 and the relative viability (NCI-H2085; first compound 0.002 µM) was 0.447. The relative viability (NCI-H2085; first compound 0.006325 µM) was 0.434, the relative viability (NCI-H2085; first compound 0.02 µM) was 0.453 and the relative viability (NCI-H2085; first compound 0.06325 µM) was 0.388. The relative viability (NCI-H2085; first compound 0.2 µM) was 0.263, the relative viability (NCI-H2087; first compound 0.002 µM) was 0.205 and the relative viability (NCI-H2087; first compound 0.006325 µM) was 0.232. It also gave a relative viability (NCI-H2087; first compound 0.02 µM) of 0.185, a relative viability (NCI-H2087; first compound 0.06325 µM) of 0.11 and a relative viability (NCI-H2087; first compound 0.2 µM) of 0.114. For the same molecule, the relative viability (NCI-H2170; first compound 0.002 µM) was 0.41, the relative viability (NCI-H2170; first compound 0.006325 µM) was 0.383 and the relative viability (NCI-H2170; first compound 0.06325 µM) was 0.376. It also gave a relative viability (NCI-H2170; first compound 0.2 µM) of 0.315, a relative viability (NCI-H2228; first compound 0.002 µM) of 0.752 and a relative viability (NCI-H2228; first compound 0.006325 µM) of 0.616. For the same molecule, the relative viability (NCI-H2228; first compound 0.02 µM) was 0.121, the relative viability (NCI-H2228; first compound 0.06325 µM) was 0.119 and the relative viability (NCI-H2228; first compound 0.2 µM) was 0.104. For the same molecule, the relative viability (NCI-H23; first compound 0.002 µM) was 0.567, the relative viability (NCI-H23; first compound 0.006325 µM) was 0.582 and the relative viability (NCI-H23; first compound 0.02 µM) was 0.376. It also gave a relative viability (NCI-H23; first compound 0.06325 µM) of 0.154, a relative viability (NCI-H23; first compound 0.2 µM) of 0.14 and a relative viability (NCI-H441; first compound 0.002 µM) of 0.243. The relative viability (NCI-H441; first compound 0.006325 µM) was 0.215, the relative viability (NCI-H441; first compound 0.02 µM) was 0.143 and the relative viability (NCI-H441; first compound 0.06325 µM) was 0.102. It also gave a relative viability (NCI-H441; first compound 0.2 µM) of 0.1, a relative viability (NCI-H650; first compound 0.002 µM) of 0.39 and a relative viability (NCI-H650; first compound 0.006325 µM) of 0.283. The relative viability (NCI-H650; first compound 0.02 µM) was 0.277, the relative viability (NCI-H650; first compound 0.06325 µM) was 0.181 and the relative viability (NCI-H650; first compound 0.2 µM) was 0.0632. For the same molecule, the relative viability (NCI-H727; first compound 0.002 µM) was 0.668, the relative viability (NCI-H727; first compound 0.006325 µM) was 0.665 and the relative viability (NCI-H727; first compound 0.02 µM) was 0.631. It also gave a relative viability (NCI-H727; first compound 0.06325 µM) of 0.45, a relative viability (NCI-H727; first compound 0.2 µM) of 0.424 and a relative viability (NCI-H838; first compound 0.002 µM) of 0.233. It also gave a relative viability (NCI-H838; first compound 0.006325 µM) of 0.252, a relative viability (NCI-H838; first compound 0.02 µM) of 0.16 and a relative viability (NCI-H838; first compound 0.06325 µM) of 0.14. The relative viability (NCI-H838; first compound 0.2 µM) was 0.105, the relative viability (PC-3 [JPC-3]; first compound 0.002 µM) was 0.558 and the relative viability (PC-3 [JPC-3]; first compound 0.006325 µM) was 0.544. The relative viability (PC-3 [JPC-3]; first compound 0.02 µM) was 0.518, the relative viability (PC-3 [JPC-3]; first compound 0.06325 µM) was 0.473 and the relative viability (PC-3 [JPC-3]; first compound 0.2 µM) was 0.436. The relative viability (SW 1573; first compound 0.002 µM) was 0.426, the relative viability (SW 1573; first compound 0.006325 µM) was 0.344 and the relative viability (SW 1573; first compound 0.02 µM) was 0.396. The relative viability (SW 1573; first compound 0.06325 µM) was 0.101, the relative viability (SW 1573; first compound 0.2 µM) was 0.0763 and the relative viability (SW 900; first compound 0.002 µM) was 0.577. For the same molecule, the relative viability (SW 900; first compound 0.006325 µM) was 0.566, the relative viability (SW 900; first compound 0.02 µM) was 0.549 and the relative viability (SW 900; first compound 0.06325 µM) was 0.144. It also gave a relative viability (SW 900; first compound 0.2 µM) of 0.134, a relative viability (UMC-11; first compound 0.002 µM) of 0.32 and a relative viability (UMC-11; first compound 0.006325 µM) of 0.303. It also gave a relative viability (UMC-11; first compound 0.02 µM) of 0.296, a relative viability (UMC-11; first compound 0.06325 µM) of 0.273 and a relative viability (UMC-11; first compound 0.2 µM) of 0.2.
